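The compound was tested at five concentrations on cells cultured in 96-well plates, with a 48-hour exposure period. GI50: concentration for 50% inhibition of growth. The concentration for full growth arrest is given as TGI.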
Tests used:
Test in all cases: NCI tumour cell line growth inhibition, 48 h
OVCAR-8 ovarian = system: OVCAR-8 ovarian
A549 NSCLC = system: A549 NSCLC
RPMI-8226 leukemia = system: RPMI-8226 leukemia
SK-MEL-5 melanoma = system: SK-MEL-5 melanoma
MALME-3M melanoma = system: MALME-3M melanoma
SF-295 CNS = system: SF-295 CNS
M14 melanoma = system: M14 melanoma
SK-OV-3 ovarian = system: SK-OV-3 ovarian
LXFL 529 NSCLC = system: LXFL 529 NSCLC
HT29 colon = system: HT29 colon
A498 renal = system: A498 renal
HCT-15 colon = system: HCT-15 colon
NCI-H226 lung = system: NCI-H226 lung
KM12 colon = system: KM12 colon
ACHN renal = system: ACHN renal
HCC-2998 colon = system: HCC-2998 colon
DLD-1 colon = system: DLD-1 colon
MOLT-4 leukemia = system: MOLT-4 leukemia
UO-31 renal = system: UO-31 renal
COLO 205 colon = system: COLO 205 colon
UACC-62 melanoma = system: UACC-62 melanoma
SW-620 colon = system: SW-620 colon
M19-MEL melanoma = system: M19-MEL melanoma
SK-MEL-2 melanoma = system: SK-MEL-2 melanoma
TK-10 renal = system: TK-10 renal
SK-MEL-28 melanoma = system: SK-MEL-28 melanoma
OVCAR-4 ovarian = system: OVCAR-4 ovarian
EKVX NSCLC = system: EKVX NSCLC
SF-268 CNS = system: SF-268 CNS
K-562 leukemia = system: K-562 leukemia
NCI-H23 lung = system: NCI-H23 lung
SNB-19 CNS = system: SNB-19 CNS
HOP-62 NSCLC = system: HOP-62 NSCLC
HL-60(TB) leukemia = system: HL-60(TB) leukemia
SNB-75 CNS = system: SNB-75 CNS
NCI-H460 lung = system: NCI-H460 lung
CCRF-CEM leukemia = system: CCRF-CEM leukemia
CAKI-1 renal = system: CAKI-1 renal
OVCAR-3 ovarian = system: OVCAR-3 ovarian
U251 CNS = system: U251 CNS
NCI-H522 lung = system: NCI-H522 lung
IGROV1 ovarian = system: IGROV1 ovarian
OVCAR-5 ovarian = system: OVCAR-5 ovarian
HOP-92 NSCLC = system: HOP-92 NSCLC
HCT-116 colon = system: HCT-116 colon
UACC-257 melanoma = system: UACC-257 melanoma
SF-539 CNS = system: SF-539 CNS
786-0 renal = system: 786-0 renal
KM20L2 colon = system: KM20L2 colon
SN12C renal = system: SN12C renal

CC(=O)[CH-]C(=O)c1ccccc1.CC(=O)[CH-]C(=O)c1ccccc1.CC(=O)[CH-]C(=O)c1ccccc1.[Nd+3].[OH3+]
GI50 (OVCAR-8 ovarian): 27.2 µM | TGI (OVCAR-8 ovarian): > 100 µM | GI50 (A549 NSCLC): > 100 µM | TGI (A549 NSCLC): > 100 µM | GI50 (RPMI-8226 leukemia): 46.6 µM | TGI (RPMI-8226 leukemia): > 100 µM | GI50 (SK-MEL-5 melanoma): 38.1 µM | TGI (SK-MEL-5 melanoma): > 100 µM | GI50 (MALME-3M melanoma): 27.2 µM | TGI (MALME-3M melanoma): 94.4 µM | GI50 (SF-295 CNS): 21.2 µM | TGI (SF-295 CNS): 86.2 µM | GI50 (M14 melanoma): 43.2 µM | TGI (M14 melanoma): > 100 µM | GI50 (SK-OV-3 ovarian): 31.7 µM | TGI (SK-OV-3 ovarian): 99 µM | GI50 (LXFL 529 NSCLC): 71.1 µM | TGI (LXFL 529 NSCLC): > 100 µM | GI50 (HT29 colon): 30 µM | TGI (HT29 colon): > 100 µM | GI50 (A498 renal): > 100 µM | TGI (A498 renal): > 100 µM | GI50 (HCT-15 colon): 42 µM | TGI (HCT-15 colon): > 100 µM | GI50 (NCI-H226 lung): > 100 µM | TGI (NCI-H226 lung): > 100 µM | GI50 (KM12 colon): 13.4 µM | TGI (KM12 colon): > 100 µM | GI50 (ACHN renal): 48.6 µM | TGI (ACHN renal): > 100 µM | GI50 (HCC-2998 colon): 85.7 µM | TGI (HCC-2998 colon): > 100 µM | GI50 (DLD-1 colon): 25 µM | TGI (DLD-1 colon): > 100 µM | GI50 (MOLT-4 leukemia): 28.4 µM | TGI (MOLT-4 leukemia): > 100 µM | GI50 (UO-31 renal): > 100 µM | TGI (UO-31 renal): > 100 µM | GI50 (COLO 205 colon): 47.3 µM | TGI (COLO 205 colon): > 100 µM | GI50 (UACC-62 melanoma): 45.5 µM | TGI (UACC-62 melanoma): > 100 µM | GI50 (SW-620 colon): 55.2 µM | TGI (SW-620 colon): > 100 µM | GI50 (M19-MEL melanoma): 31.4 µM | TGI (M19-MEL melanoma): > 100 µM | GI50 (SK-MEL-2 melanoma): 25.9 µM | TGI (SK-MEL-2 melanoma): > 100 µM | GI50 (TK-10 renal): > 100 µM | TGI (TK-10 renal): > 100 µM | GI50 (SK-MEL-28 melanoma): 66.9 µM | TGI (SK-MEL-28 melanoma): > 100 µM | GI50 (OVCAR-4 ovarian): 93.8 µM | TGI (OVCAR-4 ovarian): > 100 µM | GI50 (EKVX NSCLC): 60.9 µM | TGI (EKVX NSCLC): > 100 µM | GI50 (SF-268 CNS): 41.3 µM | TGI (SF-268 CNS): > 100 µM | GI50 (K-562 leukemia): 42.6 µM | TGI (K-562 leukemia): > 100 µM | GI50 (NCI-H23 lung): 37.8 µM | TGI (NCI-H23 lung): > 100 µM | GI50 (SNB-19 CNS): > 100 µM | TGI (SNB-19 CNS): > 100 µM | GI50 (HOP-62 NSCLC): 31.9 µM | TGI (HOP-62 NSCLC): > 100 µM | GI50 (HL-60(TB) leukemia): 30.1 µM | TGI (HL-60(TB) leukemia): > 100 µM | GI50 (SNB-75 CNS): 6.66 µM | TGI (SNB-75 CNS): 43.4 µM | GI50 (NCI-H460 lung): 42.8 µM | TGI (NCI-H460 lung): > 100 µM | GI50 (CCRF-CEM leukemia): 9.7 µM | TGI (CCRF-CEM leukemia): > 100 µM | GI50 (CAKI-1 renal): 61 µM | TGI (CAKI-1 renal): > 100 µM | GI50 (OVCAR-3 ovarian): 45.7 µM | TGI (OVCAR-3 ovarian): > 100 µM | GI50 (U251 CNS): 37 µM | TGI (U251 CNS): > 100 µM | GI50 (NCI-H522 lung): 12.1 µM | TGI (NCI-H522 lung): > 100 µM | GI50 (IGROV1 ovarian): 97.9 µM | TGI (IGROV1 ovarian): > 100 µM | GI50 (OVCAR-5 ovarian): 93.1 µM | TGI (OVCAR-5 ovarian): > 100 µM | GI50 (HOP-92 NSCLC): 29.5 µM | TGI (HOP-92 NSCLC): 77.4 µM | GI50 (HCT-116 colon): 46.7 µM | TGI (HCT-116 colon): > 100 µM | GI50 (UACC-257 melanoma): 52.1 µM | TGI (UACC-257 melanoma): > 100 µM | GI50 (SF-539 CNS): 52.9 µM | TGI (SF-539 CNS): > 100 µM | GI50 (786-0 renal): 37 µM | TGI (786-0 renal): > 100 µM | GI50 (KM20L2 colon): 38 µM | TGI (KM20L2 colon): > 100 µM | GI50 (SN12C renal): 42.3 µM | TGI (SN12C renal): > 100 µM

— PubChem BioAssay (NCI)
